Blank lines part the entries; values can stand above or below the compound they belong to.
Columns and labels:
Type in all cases: cell-based
[1] = target: T1, allatostatin A receptor (ASTA-R) (Apis mellifera, UniProt A0A7M7ILT1); assay: reversal of ASTA inhibition of forskolin-induced cAMP in ASTA-R-expressing cells; also weak competition binding (IC50 > […])
T1 construct: gene LOC413582; receptor expressed in transfected HEK293T cells (NCBI: XP_006560262.1 used for the model)
T1 sequence (A0A7M7ILT1 1-361): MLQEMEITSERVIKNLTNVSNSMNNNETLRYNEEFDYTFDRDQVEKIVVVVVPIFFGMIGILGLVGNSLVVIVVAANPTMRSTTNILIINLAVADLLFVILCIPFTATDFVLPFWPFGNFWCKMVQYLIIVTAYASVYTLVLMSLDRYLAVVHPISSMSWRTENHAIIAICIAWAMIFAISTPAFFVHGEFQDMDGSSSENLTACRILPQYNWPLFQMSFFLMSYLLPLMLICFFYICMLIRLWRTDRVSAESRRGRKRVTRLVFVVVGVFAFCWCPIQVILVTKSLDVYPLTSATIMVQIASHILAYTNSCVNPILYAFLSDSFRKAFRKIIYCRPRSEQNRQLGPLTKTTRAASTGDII

[2] = target: T1, allatostatin A receptor (ASTA-R); assay: competition binding with fluorescence-labeled ASTA on ASTA-R-transfected HEK cells
[3] = target: T1, allatostatin A receptor (ASTA-R); assay: competition binding with fluorescence-labeled ASTA on ASTA-R-transfected HEK cells; also cAMP antagonism

SMILES: Cc1ccc(-n2cncn2)c(NC(=O)CSCCCc2ccccc2)c1 [B6, N-(5-methyl-2-(1H-1,2,4-triazol-1-yl)phenyl)-2-(phenypropylthio)acetamide]
reversal of ASTA inhibition of forskolin-induced cAMP in ASTA-R-expressing cells [1]: both B5 and B6 act as ASTA antagonists by interacting with ASTA-R

IC50 [2]: > 10 µM
SMILES: O=C(CSCCCc1ccccc1)Nc1cc(C(F)(F)F)ccc1-n1cncn1 [B3, N-(2-(1H-1,2,4-triazol-1-yl)-5-(trifluoromethyl)phenyl)-2-((3-phenylpropyl)thio)acetamide]

IC50 [3]: > 10 µM
SMILES: Cc1ccc(-n2cncn2)c(NC(=O)CSCCc2ccccc2)c1 [B5, N-(5-methyl-2-(1H-1,2,4-triazol-1-yl)phenyl)-2-(phenethylthio)acetamide]

From paper PMC9537510, “Reduction of stress responses in honey bees by synthetic ligands targeting an allatostatin receptor” (Scientific Reports, 2022)
